Data reported in BigSolDB 2.1.

CCOc1ncc(C)c2c1[C@H](c1ccc(C#N)cc1OC)C(C(N)=O)=C(C)N2
solubility (mole fraction)
Conditions	in 2-butanone	in acetone	in acetonitrile	in dichloromethane	in ethanol	in ethyl acetate	in isopropanol	in isopropyl acetate	in methanol	in methyl acetate
273.15 K	0.0031	0.00376	0.000808	0.0047	0.000949	0.00114	0.000229	0.000378	0.004	0.00127
278.15 K	0.00347	0.00407	0.000973	0.00506	0.00115	0.00128	0.000333	0.000459	0.00422	0.00136
283.15 K	0.00376	0.00449	0.00111	0.00565	0.00135	0.00143	0.000443	0.000563	0.0045	0.0015
288.15 K	0.0041	0.00508	0.00129	0.00622	0.00156	0.00157	0.000554	0.000647	0.00484	0.00166
293.15 K	0.0044	0.00545	0.00144	0.00669	0.00182	0.0017	0.000682	0.000728	0.00515	0.00182
298.15 K	0.00468	0.00577	0.00166	0.00724	0.00206	0.00182	0.000822	0.000809	0.00553	0.00197
303.15 K	0.00508	0.00614	0.0019	0.00766	0.00233	0.00195	0.000984	0.00089	0.00599	0.00211
308.15 K	0.00542	0.00665	0.00217	0.00814	0.00261	0.00211	0.00122	0.000979	0.00638	0.00229
313.15 K	0.00587	0.00725	0.00247	–	0.00299	0.00225	0.00152	0.00113	0.00684	0.00248
